Source: patent US8648078B2, “PLK inhibitor salts” (Nerviano Medical Sciences S.R.L., priority 2009, dated 2014)

Legend:
Type in all cases: physicochemical
[1] = Hygroscopicity test by Dynamic Vapour Sorption (DVS); settings: for Water uptake: 25° C.
Method: The apparatus is a “controlled atmosphere microbalance” where the weighed sample is exposed to programmed variations of the relative humidity (RH) at a constant and controlled temperature. The measured parameters (weight, time and RH), reported in Excel worksheets, allow obtaining hygroscopicity curves over the tested RH range. Sorption/desorption cycles between 0% and 90% RH can be performed at controlled temperature of 25° C. Progressive variations of RH are of 10%; they are operated by the software at the equilibration of the sample weight. This condition can be defined at a constant rate of percent weight variation e.g. 0.005%/min. The experimental results are reported both as in the DVS Isotherm Reports and Isotherm Plots.

[2] = Solid state stability on storage at stressed temperature and humidity; settings: storage at 40° C./75% RH
[3] = Aqueous solubility of compound 937 salts and free base (excess solid stirred in water, filtered, HPLC); settings: thermodynamic from solid, RT, stirred 4 hours, excess solid (target 10 mg/ml)
From the text: The obtained preparations have been filtered and analyzed by means of HPLC.

[4] = Solubility of compound 937 in early formulation vehicles / as in situ salt; settings: aqueous with cosolvent or surfactant or cyclodextrin; in 10% polysorbate 80 in 5% dextrose solution

CN1CCN(c2ccc(OC(F)(F)F)c(Nc3ncc4c(n3)-c3c(c(C(N)=O)nn3CCO)CC4)c2)CC1.O=C(O)/C=C/C(=O)O [compound 937 fumarate salt]
Water uptake ([1]; 90% RH): 1.6%
Water uptake ([1]; DVS sorption ramp, 0.0% RH): 0.0%
Water uptake ([1]; DVS sorption ramp, 10.0% RH): 0.1%
Water uptake ([1]; DVS sorption ramp, 20.0% RH): 0.3%
Water uptake ([1]; DVS sorption ramp, 30.0% RH): 0.4%
Water uptake ([1]; DVS sorption ramp, 40.0% RH): 0.6%
Water uptake ([1]; DVS sorption ramp, 50.0% RH): 0.9%
Water uptake ([1]; DVS sorption ramp, 60.0% RH): 1.2%
Water uptake ([1]; DVS sorption ramp, 70.0% RH): 1.4%
Water uptake ([1]; DVS sorption ramp, 80.0% RH): 1.5%

CN1CCN(c2ccc(OC(F)(F)F)c(Nc3ncc4c(n3)-c3c(c(C(N)=O)nn3CCO)CC4)c2)CC1.O=C(O)/C=C\C(=O)O [compound 937 maleate salt form II]
solid form stability (in words) [2]: undergoes conversion to form I
hygroscopicity (in words) [1]: moderately hygroscopic

CN1CCN(c2ccc(OC(F)(F)F)c(Nc3ncc4c(n3)-c3c(c(C(N)=O)nn3CCO)CC4)c2)CC1.O=C(O)CCC(=O)O [compound 937 succinate salt form II]
solid form stability (in words) [2]: stable

CN1CCN(c2ccc(OC(F)(F)F)c(Nc3ncc4c(n3)-c3c(c(C(N)=O)nn3CCO)CC4)c2)CC1.O=C(O)C(O)C(O)C(=O)O [compound 937 L-tartrate salt]
hygroscopicity (in words) [1]: moderately hygroscopic
Water uptake ([1]; 90% RH): ~5.8%

CN1CCN(c2ccc(OC(F)(F)F)c(Nc3ncc4c(n3)-c3c(c(C(N)=O)nn3CCO)CC4)c2)CC1.O=C(O)C[C@H](O)C(=O)O [compound 937 L-malate salt]
hygroscopicity (in words) [1]: moderately hygroscopic
Water uptake ([1]; 90% RH): about 4.7%

CN1CCN(c2ccc(OC(F)(F)F)c(Nc3ncc4c(n3)-c3c(c(C(N)=O)nn3CCO)CC4)c2)CC1 [compound 937, 1-(2-hydroxy-ethyl)-8-[5-(4-methyl-piperazin-1-yl)-2-trifluoromethoxy-phenylamino]-4,5-dihydro-1H-pyrazolo[4,3-h]quinazoline-3-carboxamide]
solubility at 4 h [3]: < 100 µg/mL
solubility [4]: ~4000 µg/mL
